{
  "source": "paper PMC3845828",
  "about": "(Clinical cancer research : an official journal of the …, 2012)",
  "origin": "cited, not measured here",
  "key": {"RAGE / S100P": {"tested_on": "RAGE / S100P", "conditions": "ref [15]"}, "cancer cells": {"tested_on": "cancer cells", "conditions": "pretreatment of cancer cells in vitro, experimental in vivo model; ref [8]"}, "HMGB-1 binding to RAGE": {"tested_on": "HMGB-1 binding to RAGE", "conditions": "in vitro; ref [8]"}},
  "data": [
    {"substance": "HMGB-1-derived peptide: peptide consisting of residues 150–183 of HMGB-1 (end of the B-box and its linker to the acidic tail) (KLKEKYEKDIAAYRAKGKPDAAKKGVVKAEKSKK; UniProt P09429 150-183, looked up, fragment)", "values": [
      {"measurement": "binding and activation of RAGE by S100P", "setting": "RAGE / S100P", "result": "blocked the binding and activation of RAGE by S100P"},
      {"measurement": "migration and metastasis of cancer cells pretreated with peptide", "setting": "cancer cells", "result": "successfully blocked their subsequent migration and their metastasis"},
      {"measurement": "competition with HMGB-1 binding to RAGE", "setting": "HMGB-1 binding to RAGE", "result": "successfully compete with HMGB-1 binding to RAGE"}
    ]}
  ]
}
